Measurements from patent US20230227445A1, “BENZAMIDE COMPOUND AND USE THEREOF” (HUMANWELL HEALTHCARE (GROUP) CO., LTD., priority 2020, published 2023).

Tests used:
[1] = Pharmacokinetic assay in rat; type: in vivo, SD rats; details: rat, plasma, po, male SD rats, intragastric administration, 10 mg/kg
Procedure: For a rat pharmacokinetic assay, male SD rats (180 g to 240 g) were selected and fasted overnight. Three rats were intragastrically administered with 10 mg/kg of the corresponding compound. The blood of the rats was collected before the administration and at 15 min, 30 min, 1 h, 2 h, 4 h, 8 h, and 24 h after the administration. The blood samples were centrifuged at 4° C. for 6 minutes at 8,000 r/min, and plasma was collected and stored at −20° C. Plasma at each time point was taken, and added with 3 to 5 times the amount of an internal standard-containing acetonitrile solution to mix, and the mixture was vortex mixed for 1 minute, and centrifuged at 4° C. for 10 minutes at 13,000 r/min. The supernatant was taken and mixed with 3 times the amount of water, and an appropriate amount of the mixed solution was taken for LC-MS/MS analysis. The primary pharmacokinetic parameters were analyzed by WinNonlin 7.0 software non-atrioventricular model.

[2] = test system: ATP/citric acid-stimulated cough in guinea pig; test: Efficacy test for ATP/citric acid-stimulated cough in guinea pig; type: in vivo; details: guinea pigs, nasal drops, 0.17 mg/kg to 1.5 mg/kg, ATP/citric acid stimulation
Procedure: Guinea pigs were adaptively fed for 3 days to 7 days before being grouped. When the body weight of the guinea pigs reached 300 g to 400 g, they were numbered and randomly grouped. Compounds or an excipient were administered to guinea pigs by nasal drops 0.25 hour to 24 hours before the start of the cough assessment. The administration dose of the test sample ranged from 0.17 mg/kg to 1.5 mg/kg. For the cough assessment, the guinea pigs were placed in a whole-body volume scan box for adaptation, and then provided with ATP nebulization, and a few minutes later, they were provided with citric acid nebulization. The cough times within 15 minutes and the cough latency were recorded from the beginning of citric acid nebulization.
(§1) The experimental data was statistically analyzed by one-way ANOVA to analyze and compare data of the various groups. The statistical analysis result p<0.05 was regarded as a significant difference. The t-test was employed for difference comparison between any two.

hP2X3 receptor = molecular target: T1, hP2X3 receptor (Homo sapiens, UniProt P56373); test: Antagonistic activity against hP2X3 receptor by FLIPR calcium flow assay; type: cell-based; details: for IC50: human cells stably transfected with hP2X3, agonist α,β-meATP 400 nM; for antagonistic activity against hP2X3 receptor compared with Reference compound 1 (in words): vs Reference compound 1
T1 construct: expressed in transfected cells
T1 sequence (P56373 1-397): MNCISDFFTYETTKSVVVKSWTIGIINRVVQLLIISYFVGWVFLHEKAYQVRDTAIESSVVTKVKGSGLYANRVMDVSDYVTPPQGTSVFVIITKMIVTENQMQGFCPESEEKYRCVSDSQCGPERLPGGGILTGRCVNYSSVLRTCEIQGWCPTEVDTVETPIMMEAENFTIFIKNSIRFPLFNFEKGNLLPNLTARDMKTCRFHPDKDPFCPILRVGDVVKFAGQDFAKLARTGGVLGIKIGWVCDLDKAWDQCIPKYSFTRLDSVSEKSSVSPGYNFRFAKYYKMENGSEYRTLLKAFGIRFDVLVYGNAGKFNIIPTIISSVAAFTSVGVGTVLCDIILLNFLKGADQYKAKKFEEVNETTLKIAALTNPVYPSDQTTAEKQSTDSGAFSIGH
Procedure: The antagonistic activity of hP2X3 antagonists against hP2X3 receptor was evaluated by means of FLIPR Calcium 4 Assay Kit (Molecular Devices, R8141) and FLIPR TETRA instrument (Molecular Devices, 0296) by detecting calcium flow signals. 24h before the experiment, human cells, which had been stably transfected with hP2X3 receptors, were plated on a 384-well plate at 2×10^5 cells/mL, with 50 μL of cell suspension per well, and the plate was cultured in an incubator (37° C., 5% CO2) for 16 h to 24 h. The test compound solution (20 to 50 mM DMSO stock solution) with a concentration of 180 times the required concentration was prepared using DMSO. The stock solution was added to the 384-well plate at 500 nL per well, supplemented with 30 μL of FLIPR Assay buffer (1×HBSS+2 mM CaCl2 20 mM HEPES containing 1.26 mM Ca^2+). The 384-well plate was shaken for 20 to 40 min to mix evenly. An agonist (α, β-meATP) with a concentration of 3 times the required concentration (required final concentration was 400 nM) was prepared with FLIPR Assay buffer, and was added to another 384-well plate at 45 μL per well. The culture plate, on which the cells were plated one day ago, was taken, the cell supernatant was sucked and discarded, each well was added with 30 μL of Dye (FLIPR® Calcium 4 Assay Kit, diluted with FLIPR buffer), and then the plate was incubated for 1h. 15 μL of compound was added to each well of cells (using FLIPR sample injector). After 15 minutes, 22.5 μL of the agonist was added to each well, and the fluorescence signal (exciting light wavelength ranging from 470 nm to 495 nm, and emission wavelength ranging from 515 nm to 575 nm) was detect. […] An inhibition effect curve of the compound was fitted on the software GraphpadPrism6, and the IC50 value was calculated.

[3] = Pharmacokinetic assay in mouse; type: in vivo, ICR mice; details: for pharmacokinetic properties in mouse compared with Reference compound 1 and Reference compound 2 (in words): mouse assay, vs Reference compounds 1 and 2; for AUC(0-t) / Cmax / Tmax / half-life: mouse, plasma, po, male ICR mice, intragastric administration, 10 mg/kg; for half-life: read-out: T½ (converted)
Procedure: For a mouse pharmacokinetic assay, male ICR mice (20 g to 25 g) were selected and fasted overnight. Three mice were intragastrically administered with 10 mg/kg of the corresponding compound. The blood of the mice was collected before the administration and at 15 min, 30 min, 1 h, 2 h, 4 h, 8 h, and 24 h after the administration. The blood samples were centrifuged at 4° C. for 6 minutes at 6,800 g, plasma was collected and stored at −80° C.
The supernatant was mixed with 3 times the amount of water, and an appropriate amount of the mixed solution was taken for LC-MS/MS analysis. The primary pharmacokinetic parameters were analyzed by WinNonlin 7.0 software non-atrioventricular model.

rat taste = test: Taste test in rat (water vs 0.3 mM aqueous quinine solution intake); type: in vivo, SD rats; details: for Water/aqueous quinine solution (ratio of water intake to aqueous quinine solution intake): SD rats, 30 mg/kg i.p, 0.3 mM quinine, 15 min supply half an hour after administration; for interference on rat taste compared with Reference compound 1 (in words): vs positive reference compound
Procedure: SD rats were administered with the corresponding compound after 3 days of overnight water prohibition training. Each rat was supplied with 1 bottle of water and 1 bottle of 0.3 mM aqueous quinine solution half an hour after the administration. After 15 min of water supply, the bottles were removed. The intake amount of water and the intake amount of the 0.3 mM aqueous quinine solution were measured, respectively. The taste influence of the compound on SD rats was evaluated based on the difference between the intake amount of water and the intake amount of the aqueous quinine solution.

[4] = test system: histamine/citric acid-stimulated cough in guinea pig; test: Efficacy test for histamine/citric acid-stimulated cough in guinea pig; type: in vivo; details: guinea pigs, nasal drops, 0.17 mg/kg to 1.5 mg/kg, histamine/citric acid stimulation
Procedure: Guinea pigs were adaptively fed for 3 days to 7 days before being grouped. When the body weight of the guinea pigs reached 300 g to 400 g, they were numbered and randomly grouped.
Compounds or an excipient were administered to guinea pigs by nasal drops 0.25 hour to 24 hours before the start of the cough assessment. The administration dose of the test sample ranged from 0.17 mg/kg to 1.5 mg/kg. For the cough assessment, the guinea pigs were placed in a whole-body volume scan box for adaptation, and then, they were provided with histamine nebulization and then citric acid nebulization. […]
as §1

[5] = Pharmacokinetic assay in canine; type: in vivo, Beagle dogs; details: for half-life (in words) / clearance rate (in words) / exposure (in words) / pharmacokinetic characteristics compared with the reference compound (in words): canine; for exposure (in words): oral and intravenous administrations; for pharmacokinetic characteristics compared with the reference compound (in words): vs reference compound; for AUC(0-t) / Cmax / Tmax / half-life / clearance / Vd: dog, plasma, male Beagle dogs; for Vd: read-out: Vz
Procedure: For a canine pharmacokinetic assay, male Beagle dogs (8 kg to 10 kg) were selected and fasted overnight. Three Beagle dogs were intragastrically administered with 5 mg/kg of the corresponding compound. Another 3 Beagle dogs were intravenously administered with 1 mg/kg of the corresponding compound. The blood of the dogs was collected before the administration and at 15 min, 30 min, 1 h, 2 h, 4 h, 8 h, and 24 h after the administration. The blood samples were centrifuged at 4° C. for 6 minutes at 8,000 r/min, plasma was collected and stored at −20° C. […] The supernatant was taken and mixed with 3 times the amount of water, and an appropriate amount of the mixed solution was taken for LC-MS/MS analysis. The primary pharmacokinetic parameters were analyzed by WinNonlin 7.0 software non-atrioventricular model.

[6] = po, intragastric administration, 5 mg/kg
[7] = intravenous administration, 1 mg/kg

## Cc1cnc(-c2cc(O[C@@H]3CCOC3)cc(C(=O)N[C@H](C)c3cnc(C(F)(F)F)nc3)c2)s1 [Reference compound 1, reference compound]
[1]
  AUC(0-t): 3330 ng·h/mL
  Cmax: 417 ng/mL
  Tmax: 2 h
[1]; read-out: T½ (converted)
  half-life: 4.01 h
[2]
  Average cough times within 15 min: 8.1

## Cc1cnc(-c2cc(O[C@H](C)[C@@H](C)O)cc(C(=O)N[C@H](C)c3cnc(C(F)(F)F)nc3)c2F)s1 [Compound I-30, 2-fluoro-5-(((2R, 3R)-3-hydroxybutan-2-yl)oxy)-3-(5-methylthiazol-2-yl)-N—((R)-1-(2-(trifluoromethyl)pyrimidin-5-yl)ethyl)benzamide]
hP2X3 receptor
  IC50: 48 nM
  antagonistic activity against hP2X3 receptor compared with Reference compound 1 (in words): better antagonistic activity
[3]
  pharmacokinetic properties in mouse compared with Reference compound 1 and Reference compound 2 (in words): significantly improved pharmacokinetic properties
  AUC(0-t): 13800 ng·h/mL
  Cmax: 2950 ng/mL
  Tmax: 1 h
  half-life: 2.35 h
Rat taste
  Water/aqueous quinine solution (ratio of water intake to aqueous quinine solution intake): 22.9
  interference on rat taste compared with Reference compound 1 (in words): significantly less interference on rat taste
[4]
  Average cough times within 15 min: 9.8
  Cough inhibition rate vs. solvent: 63.2%
[2]
  Average cough times within 15 min: 7.1
  Cough inhibition rate vs. solvent: 64.1%
[5]
  half-life (in words): long half-life
  exposure (in words): high exposure
  pharmacokinetic characteristics compared with the reference compound (in words): better pharmacokinetic characteristics
[5]; intravenous administration
  clearance rate (in words): low clearance rate
[5]; [6]
  AUC(0-t): 12600 ng·h/mL
  Cmax: 1030 ng/mL
  Tmax: 1 h
  half-life: 13.4 h
[5]; [7]
  AUC(0-t): 2820 ng·h/mL
  clearance: 4.33 mL/min/kg
  half-life: 13 h
  Vd: 4.88 L/kg

## Cc1cnc(-c2cc(O[C@@H](C)[C@@H](C)O)cc(C(=O)N[C@H](C)c3cnc(C(F)(F)F)nc3)c2F)s1 [Compound I-27, 2-fluoro-5-(((2S, 3R)-3-hydroxybutan-2-yl)oxy)-3-(5-methylthiazol-2-yl)-N—((R)-1-(2-(trifluoromethyl)pyrimidin-5-yl)ethyl)benzamide]
hP2X3 receptor
  IC50: 67 nM
  antagonistic activity against hP2X3 receptor compared with Reference compound 1 (in words): better antagonistic activity
[3]
  pharmacokinetic properties in mouse compared with Reference compound 1 and Reference compound 2 (in words): significantly improved pharmacokinetic properties
Rat taste
  Water/aqueous quinine solution (ratio of water intake to aqueous quinine solution intake): 29.4
  interference on rat taste compared with Reference compound 1 (in words): significantly less interference on rat taste
[4]
  Average cough times within 15 min: 8.9
[2]
  Average cough times within 15 min: 6.3

## Cc1cnc(-c2cc(O[C@H](C)[C@H](C)O)cc(C(=O)N[C@H](C)c3cnc(C(F)(F)F)nc3)c2F)s1 [Compound I-29, 2-fluoro-5-(((2R, 3S)-3-hydroxybutan-2-yl)oxy)-3-(5-methylthiazol-2-yl)-N—((R)-1-(2-(trifluoromethyl)pyrimidin-5-yl)ethyl)benzamide]
hP2X3 receptor
  IC50: 57 nM
  antagonistic activity against hP2X3 receptor compared with Reference compound 1 (in words): better antagonistic activity
[3]
  pharmacokinetic properties in mouse compared with Reference compound 1 and Reference compound 2 (in words): significantly improved pharmacokinetic properties
  AUC(0-t): 14900 ng·h/mL
  Cmax: 4100 ng/mL
  Tmax: 1 h
  half-life: 2.23 h
Rat taste
  Water/aqueous quinine solution (ratio of water intake to aqueous quinine solution intake): 12.0
[4]
  Average cough times within 15 min: 10.8
  Cough inhibition rate vs. solvent: 59.4%
[5]
  half-life (in words): long half-life
  exposure (in words): high exposure
  pharmacokinetic characteristics compared with the reference compound (in words): better pharmacokinetic characteristics
[5]; intravenous administration
  clearance rate (in words): low clearance rate
[5]; [6]
  AUC(0-t): 8730 ng·h/mL
  Cmax: 1160 ng/mL
  Tmax: 1 h
  half-life: 7.26 h
[5]; [7]
  AUC(0-t): 2010 ng·h/mL
  clearance: 7.5 mL/min/kg
  half-life: 7.64 h
  Vd: 5 L/kg
